Experimental data: the NIST ThermoML archive (doi:10.1016/j.jct.2011.09.007)
Numbers after ± are expanded uncertainties.

Tests used:
[1] = Liquid; for mass density: 298.15 K, 101.33 kPa, Vibrating tube method; for vapor or sublimation pressure: Ebulliometric method (Recirculating still)
[2] = refractive index (Na D-line) (dimensionless); settings: 298.15 K; 101.33 kPa; Liquid; Standard Abbe refractometry

| Compound | mass density [1] [kg/m3] | vapor or sublimation pressure ([1]; 330 K) [kPa] | vapor or sublimation pressure ([1]; 340 K) [kPa] | refractive index [2] | vapor or sublimation pressure ([1]; 330.04 K) [kPa] | vapor or sublimation pressure ([1]; 331.02 K) [kPa] | vapor or sublimation pressure ([1]; 337.07 K) [kPa] | vapor or sublimation pressure ([1]; 340.05 K) [kPa] | vapor or sublimation pressure ([1]; 340.57 K) [kPa] | vapor or sublimation pressure ([1]; 343.73 K) [kPa] | vapor or sublimation pressure ([1]; 347.76 K) [kPa] | vapor or sublimation pressure ([1]; 351.12 K) [kPa] | vapor or sublimation pressure ([1]; 365.8 K) [kPa] | vapor or sublimation pressure ([1]; 371.23 K) [kPa] | vapor or sublimation pressure ([1]; 373.22 K) [kPa] | vapor or sublimation pressure ([1]; 375.59 K) [kPa] | vapor or sublimation pressure ([1]; 378.26 K) [kPa] | vapor or sublimation pressure ([1]; 381.01 K) [kPa] | vapor or sublimation pressure ([1]; 382.94 K) [kPa] | vapor or sublimation pressure ([1]; 384.94 K) [kPa] |
| --- | --- | --- | --- | --- | --- | --- | --- | --- | --- | --- | --- | --- | --- | --- | --- | --- | --- | --- | --- | --- |
| CC(C)CC(C)(C)C [2,2,4-trimethylpentane] | 687.79 ± 0.2 | 25.47 ± 0.16 | 36.64 ± 0.2 | 1.38894 ± 0.00072 |  |  |  |  |  |  |  |  |  |  |  |  |  |  |  |  |
| CC(C)C(=O)C(C)C [2,4-dimethyl-3-pentanone] | 798.8 ± 0.21 | 8.87 ± 0.04 | 13.55 ± 0.06 | 1.3974 ± 0.0007 | 8.87 ± 0.04 | 9.28 ± 0.04 | 12.02 ± 0.05 | 13.58 ± 0.06 | 13.89 ± 0.06 | 15.78 ± 0.06 | 18.48 ± 0.07 | 21.02 ± 0.08 | 35.36 ± 0.11 | 42.49 ± 0.14 | 45.36 ± 0.15 | 49 ± 0.16 | 53.37 ± 0.18 | 58.22 ± 0.19 | 61.82 ± 0.2 | 65.74 ± 0.21 |
| CC(C)O [propan-2-ol] | 780.91 ± 0.16 | 33.25 ± 0.23 | 52.97 ± 0.29 | 1.37504 ± 0.00072 |  |  |  |  |  |  |  |  |  |  |  |  |  |  |  |  |
